Data published in patent US12077555B2, “STAT degraders and uses thereof” (Kymera Therapeutics, Inc., priority 2019, dated 2024).

Molecular target: STAT3 (Homo sapiens, UniProt P40763)
Assay: STAT3 HiBiT degradation assay in transfected A549 cells
Assay type: cell-based
Parameters: expressed in transfected cells; host or cells: A549
Details: A549, 24 h; read-out: STAT3 HiBiT A549 degradation 24 h: Average external-Abs DC50
Procedure, shortened: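 Degradation read as HiBiT-tagged STAT3 luminescence (Nano-Glo lytic reagent, 10 min, room temperature) following 24 h compound treatment of transfected A549 cells at 3-fold, 10 points. Percent remaining signal computed against controls and fitted with a four-parameter logistic; DC50 reported as letter bins (A <0.01 to D >1.0 µM).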

Chain of STAT3 (P40763 whole entry): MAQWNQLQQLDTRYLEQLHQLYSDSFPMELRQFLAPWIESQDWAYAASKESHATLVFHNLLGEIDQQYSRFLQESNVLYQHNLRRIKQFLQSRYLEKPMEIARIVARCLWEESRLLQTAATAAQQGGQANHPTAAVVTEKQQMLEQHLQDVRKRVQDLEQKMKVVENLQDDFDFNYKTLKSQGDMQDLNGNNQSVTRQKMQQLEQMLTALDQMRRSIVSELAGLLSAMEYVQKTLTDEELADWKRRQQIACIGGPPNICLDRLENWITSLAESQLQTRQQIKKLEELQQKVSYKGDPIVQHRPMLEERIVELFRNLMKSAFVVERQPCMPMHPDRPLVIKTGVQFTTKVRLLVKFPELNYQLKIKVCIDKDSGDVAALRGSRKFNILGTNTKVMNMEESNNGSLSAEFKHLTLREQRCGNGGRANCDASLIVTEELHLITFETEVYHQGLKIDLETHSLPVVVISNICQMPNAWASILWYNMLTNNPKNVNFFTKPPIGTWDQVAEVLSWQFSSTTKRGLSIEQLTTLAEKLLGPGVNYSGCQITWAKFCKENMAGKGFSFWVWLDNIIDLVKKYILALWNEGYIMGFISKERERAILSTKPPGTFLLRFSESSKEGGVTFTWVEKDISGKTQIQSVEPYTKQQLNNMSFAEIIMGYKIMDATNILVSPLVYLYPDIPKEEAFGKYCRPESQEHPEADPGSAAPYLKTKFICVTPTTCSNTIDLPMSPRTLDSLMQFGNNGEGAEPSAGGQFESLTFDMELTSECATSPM

Compound | DC50
Cc1ncsc1-c1ccc([C@H](C)NC(=O)[C@@H]2C[C@@H](O)CN2C(=O)[C@@H](NC(=O)CCCc2cccc(NC(=O)[C@H](CCC(N)=O)NC(=O)[C@@H]3Cc4cccc5c4N3C(=O)[C@@H](NC(=O)c3cc4cc(C(=O)P(=O)(O)O)ccc4[nH]3)CC5)c2Cl)C(C)(C)C)cc1 [Compound I-247, diammonium 2-[[(2S,11S)-2-[[(1S)-3-carbamoyl-1-[[2-chloro-3-(3-[[(2S)-1-[(2S,4R)-4-hydroxy-2-[[(1S)-1-[4-(4-methyl-1,3-thiazol-5-yl)phenyl]ethyl]carbamoyl]pyrrolidin-1-yl]-3,3-dimethyl-1-oxobutan-2-yl]carbamoyl]propyl)phenyl]carbamoyl]propyl]carbamoyl]-12-oxo-1-azatricyclo[6.4.1.0^[4,13]]trideca-4(13),5,7-trien-11-yl]carbamoyl]-1H-indole-5-carbonylphosphonate] | 10 to 100 nM
Cc1ncsc1-c1ccc([C@H](C)NC(=O)[C@@H]2C[C@@H](O)CN2C(=O)[C@@H](NC(=O)CCCCCc2ccc(F)c(OC[C@H](CCC(N)=O)NC(=O)[C@@H]3Cc4cccc5c4N3C(=O)[C@@H](NC(=O)c3cc4cc(C(=O)P(=O)(O)O)ccc4[nH]3)CC5)c2)C(C)(C)C)cc1 [Compound I-207] | 100 to 1000 nM
Cc1ncsc1-c1ccc(CNC(=O)[C@@H]2C[C@@H](O)CN2C(=O)[C@@H](NC(=O)CCCCCCCC(=O)N2CC[C@H]3CC[C@@H](C(=O)N[C@@H](CCC(N)=O)C(=O)NC(c4ccccc4)c4ccccc4)N3C(=O)[C@@H](NC(=O)c3cc4cc(C(=O)P(=O)(O)O)ccc4[nH]3)C2)C(C)(C)C)cc1 [Compound I-147] | > 1000 nM
Cc1ncsc1-c1ccc(CNC(=O)[C@@H]2C[C@@H](O)CN2C(=O)[C@@H](NC(=O)CCCCc2cccc(OC[C@H](CCC(N)=O)NC(=O)[C@@H]3Cc4cccc5c4N3C(=O)[C@@H](NC(=O)c3cc4cc(C(=O)P(=O)(O)O)ccc4[nH]3)CC5)c2)C(C)(C)C)cc1 [Compound I-221] | 10 to 100 nM
CC(=O)N1CC[C@H]2CC[C@@H](C(=O)N[C@@H](CCC(N)=O)COc3cccc(CCCCC(=O)N[C@H](C(=O)N4C[C@H](O)C[C@H]4C(=O)N[C@@H](C)c4ccc(-c5scnc5C)cc4)C(C)(C)C)c3F)N2C(=O)[C@@H](NC(=O)c2cc3cc(C(=O)P(=O)(O)O)ccc3[nH]2)C1 [Compound I-263, 2-[[(5S,8S,10aR)-3-acetyl-8-[[(2S)-4-carbamoyl-1-[2-fluoro-3-(4-[[(2S)-1-[(2S,4R)-4-hydroxy-2-[[(1S)-1-[4-(4-methyl-1,3-thiazol-5-yl)phenyl]ethyl]carbamoyl]pyrrolidin-1-yl]-3,3-dimethyl-1-oxobutan-2-yl]carbamoyl]butyl)phenoxy]butan-2-yl]carbamoyl]-6-oxo-octahydropyrrolo[1,2-a][1,5]diazocin-5-yl]carbamoyl]-1H-indole-5-carbonylphosphonic acid] | < 10 nM
Cn1c(=O)n(C2CCC(=O)NC2=O)c2ccc(CN3CCN(CC(=O)N4CC[C@H]5CC[C@@H](C(=O)N[C@@H](CCC(N)=O)C(=O)NC(c6ccccc6)c6ccccc6)N5C(=O)[C@@H](NC(=O)c5cc6cc(C(=O)P(=O)(O)O)ccc6[nH]5)C4)CC3)cc21 (stereo partly drawn) [Compound I-157, 2-[[(5S,8S,10aR)-8-[[(1S)-3-carbamoyl-1-(diphenylmethylcarbamoyl)propyl]carbamoyl]-3-[2-(4-[[1-(2,6-dioxopiperidin-3-yl)-3-methyl-2-oxo-1,3-benzodiazol-5-yl]methyl]piperazin-l-yl)acetyl]-6-oxo-octahydropyrrolo[1,2-a][1,5]diazocin-5-yl]carbamoyl]-1H-indole-5-carbonylphosphonic acid] | 100 to 1000 nM
Cn1c(=O)n(C2CCC(=O)NC2=O)c2ccc(N3CCN(CCCC(=O)N4CC[C@H]5CC[C@@H](C(=O)N[C@@H](CCC(N)=O)C(=O)NC(c6ccccc6)c6ccccc6)N5C(=O)[C@@H](NC(=O)c5cc6cc(C(=O)P(=O)(O)O)ccc6[nH]5)C4)CC3)cc21 (stereo partly drawn) [Compound I-168, 2-[[(5S,8S,10aR)-8-[[(1S)-3-carbamoyl-1-(diphenylmethylcarbamoyl)propyl]carbamoyl]-3-(4-[4-[1-(2,6-dioxopiperidin-3-yl)-3-methyl-2-oxo-1,3-benzodiazol-5-yl]piperazin-1-yl]butanoyl)-6-oxo-octahydropyrrolo[1,2-a][1,5]diazocin-5-yl]carbamoyl]-1H-indole-5-carbonylphosphonic acid] | > 1000 nM
Cc1ncsc1-c1ccc(C2(NC(=O)[C@@H]3C[C@@H](O)CN3C(=O)[C@@H](NC(=O)CCCCCc3cccc(OC[C@H](CCC(N)=O)NC(=O)[C@@H]4Cc5cccc6c5N4C(=O)[C@@H](NC(=O)c4cc5cc(C(=O)P(=O)(O)O)ccc5[nH]4)CC6)c3)C(C)(C)C)CC2)cc1 [Compound I-206, diammonium 2-[[(2S,11S)-2-[[(2S)-4-carbamoyl-1-[3-(5-[[(2S)-1-[(2S,4R)-4-hydroxy-2-([1-[4-[4-methyl-1,3-thiazo1-5-yl)phenyl]cyclopropyl]carbamoyl)pyrrolidin-1-yl]-3,3-dimethyl-1-oxobutan-2-yl]carbamoyl]pentyl)phenoxy]butan-2-yl]carbamoyl]-12-oxo-1-azatricyclo[6.4.1.0^[4,13]]trideca-4(13),5,7-trien-11-yl]carbamoyl]-1H-indole-5-carbonylphosphonate] | 10 to 100 nM
Cn1c(=O)n(C2CCC(=O)NC2=O)c2ccc(CC[C@H]3CC[C@@H](C(=O)N4CC[C@H]5CC[C@@H](C(=O)N[C@@H](CCC(N)=O)C(=O)NCc6ccc(S(C)(=O)=O)cc6)N5C(=O)[C@@H](NC(=O)c5cc6cc(C(=O)P(=O)(O)O)ccc6[nH]5)C4)CC3)cc21 (stereo partly drawn) [Compound I-294, (2-(((5S,8S,10aR)-8-(((S)-5-amino-1-((4-(methylsulfonyl)benzyl)amino)-1,5-dioxopentan-2-yl)carbamoyl)-3-((1r,4R)-4-(2-(1-(2,6-dioxopiperidin-3-yl)-3-methyl-2-oxo-2,3-dihydro-1H-benzo[d]imidazol-5-yl)ethyl)cyclohexane-1-carbonyl)-6-oxodecahydropyrrolo[1,2-a][1,5]diazocin-5-yl)carbamoyl)-1H-indole-5-carbonyl)phosphonic acid] | < 10 nM
CC(C)c1ccc(CNC(=O)[C@H](CCC(N)=O)NC(=O)[C@@H]2Cc3cc(CCCCCCc4ccc5c(c4)n(C)c(=O)n5C4CCC(=O)NC4=O)cc4c3N2C(=O)[C@@H](NC(=O)c2cc3cc(C(=O)P(=O)(O)O)ccc3[nH]2)CC4)cc1 (stereo partly drawn) [Compound I-232, 2-[[(2S,11S)-2-[[(1S)-3-carbamoyl-1-[[(4-isopropylphenyl)methyl]carbamoyl]propyl]carbamoyl]-6-[6-[1-(2,6-dioxopiperidin-3-yl)-3-methyl-2-oxo-1,3-benzodiazol-5-yl]hexyl]-12-oxo-1-azatricyclo[6.4.1.0^[4,13]]trideca-4(13),5,7-trien-11-yl]carbamoyl]-1H-indole-5-carbonylphosphonic acid] | 10 to 100 nM
Cn1c(=O)n(C2CCC(=O)NC2=O)c2ccc([C@H]3CC[C@H](CCCC(=O)N4CC[C@H]5CC[C@@H](C(=O)NC(CCC(N)=O)C(=O)NC(c6ccccc6)c6ccccc6)N5C[C@@H](NC(=O)c5cc6cc(C(=O)P(=O)(O)O)ccc6[nH]5)C4)CC3)cc21 (some centres unmarked) [Compound I-271] | 100 to 1000 nM
